Measurements reported in US7662222B2, “Method and use of nanoparticles to bind biocides in paints” (I-Tech AB, priority 2005, dated 2010).
Entries after “also recorded” stand apart in the source; their conditions may differ.

Assays:
[1] = adsorption of biocides onto CuO and ZnO nanoparticles in o-xylene, non-adsorbed biocide by HPLC-UV; type: physicochemical; settings: biocide 50 mM
Protocol: To 50 ml of the solvent o-xylene, the biocide was added at a total concentration of 50 mM. Nano-particles (Sigma-Aldrich Sweden AB, Stockholm, Sweden) were then added in relevant concentrations according to the test protocol and after each addition the concentration of non-adsorbed Medetomidine (Orion Pharma, Helsinki, Finland) was measured with a standard HPLC-UV technique. The UV-absorbance maximum of Medetomidine was, from the literature, found to be 220 nm. Prior to the HPLC analysis the UV-absorbance maximum was investigated in order to verify the value given from the literature using a UV-spectrometer (GBC 920 UV/visible spectrometer, Scientific Equipments Ltd., Victoria, Australia).
The samples were analysed on a HPLC-UV system consisting of a Merck-Hitachi L-6200 pump (Merck-Hitachi, Darmstadt, Germany), a Supelco Discovery® (Sigma-Aldrich Sweden AB, Stockholm, Sweden) C18 (25 cm×4.6 mm, 5 m) column fitted with a prefilter (0.5 μm) and a Spectra-Physics Spectra 100 UV (Spectra-Physics Inc, Irvine Calif., USA) operating at 220 nm. The mobile phase was MilliQ-water:Acetonitrile (0.1% TFA v/v (mobile phase A): 0.1% TFA v/v (mobile phase B)) run over a gradient (6% B for two min then an increase up to 60% B in 15 min, a further increase up to 100% B in 3 min and then isocratic for 3 min before returning to the starting values in 2 min) at a flow rate of […]. The peak separation was monitored by UV (220 nm). Manual injections of 100 micro-liter were made and the data was collected and integrated using the Millenium software (version 3.20, 1999)(Waters Inc, Milford Mass., USA).

[2] = CuO (5 μm) instead of nanoparticle, o-xylene
Protocol: The different nanoparticles used (ZnO, CuO, Al2O3, MgO, TiO2, CO3O4) were bought from Sigma (Sigma-Aldrich Sweden AB, Stockholm, Sweden) and used without further purification. 50 ml of o-xylene was added to a beaker to which 50 mM of Medetomidine (Orion Pharma, Helsinki, Finland) was added. Nanoparticles were then added and after each addition the amount of free Medetomidine was measured with HPLC-UV (as in example 1 above).

barnacles = settings: reported pharmacological compounds; cited from earlier work

| SMILES | adsorption of antifouling agent onto nanoparticles [1] | Medetomidine adsorption onto micrometer sized particle [2] | effect on attachment / settlement of barnacles (barnacles) |
| --- | --- | --- | --- |
| Cc1cccc(C(C)c2cnc[nH]2)c1C (racemic) [Medetomidine, (S,R)-4(5)-[1-(2,3-dimethylphenyl)ethyl]-1H-imidazole] | Large fractions of Medetomidine are adsorbed already at low particle concentrations; also recorded: best adsorption | negligible | efficient inhibitor |
| CC(C)C[C@H]1C(=O)N2CCC[C@H]2[C@]2(O)O[C@](NC(=O)[C@@H]3C=C4c5cccc6[nH]c(Br)c(c56)C[C@H]4N(C)C3)(C(C)C)C(=O)N12 [(+)-Bromocriptine] |  |  | inhibitory properties |
| O=C(c1ccc(F)cc1)C1CCN(CCn2c(=O)[nH]c3ccccc3c2=O)CC1 [Ketanserin] |  |  | inhibitory properties |
| CCCN1CCc2cccc3c2[C@H]1Cc1ccc(O)c(O)c1-3 [R (−)-NPA] |  |  | inhibitory properties |
| CCCCCCCCn1sc(Cl)c(Cl)c1=O [SeaNine, 4,5-dichloro-2-n-octyl-3(2H)-isothiazolone] | exhibited adsorption |  |  |
| CN(C)C(=O)Nc1ccc(Cl)c(Cl)c1 [diuron, 3-(3,4-dichlorophenyl)-1,1-dimethylurea] | exhibited adsorption |  |  |
| CSc1nc(NC2CC2)nc(NC(C)(C)C)n1 [igarol, 2-methylthio-4-tert-butylamino-6-cyclopropylamino-s-triziane] | exhibited adsorption |  |  |
